Assays:
Format in all cases: in vivo
[1] = system: ragweed (common ragweed, Ambrosia artemisiifolia); experiment: Test A preemergence, ragweed; settings: Preemergence; for Ragweed plant response rating: visual injury on 0 to 100 scale (0 no effect, 100 complete control), approximately 10 days; for Plant response rating, Ragweed: 0 to 100 scale (0 no effect, 100 complete control)
Outline: (§1)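 Formulated with a surfactant in a non-phytotoxic solvent, compounds are applied to loam–sand pots, either to bare soil immediately after seeding (preemergence) or to seedlings of 2 to 10 cm bearing one to two leaves (postemergence).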

[2] = system: pigweed (Amaranthus retroflexus); experiment: Test A preemergence, pigweed; settings: for Pigweed plant response rating: visual injury on 0 to 100 scale (0 no effect, 100 complete control), approximately 10 days; for Plant response rating, Pigweed: 0 to 100 scale (0 no effect, 100 complete control)
Outline: (§2)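 Seeds are sown in loam mixed with sand and sprayed on the soil surface right after planting for the preemergence test. Postemergence pots are sprayed once seedlings reach 2 to 10 cm at the one- to two-leaf stage. The same surfactant-containing, non-phytotoxic solvent formulation serves both.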

[3] = system: Foxtail, Giant (giant foxtail, Setaria faberi); experiment: Test A postemergence, Foxtail, Giant; settings: Postemergence; for Foxtail, Giant plant response rating: 500 g ai/ha, visual injury vs untreated controls after approx. 10 days
Outline: as §1

kochia (Bassia scoparia) [4] = experiment: Test A postemergence, kochia; settings: Postemergence; for Kochia plant response rating: 500 g ai/ha, visual injury vs untreated controls after approx. 10 days
Outline: as §1

[5] = system: barnyardgrass (Echinochloa crus-galli); experiment: Test A preemergence, barnyardgrass; settings: Preemergence; for Barnyardgrass plant response rating: visual injury on 0 to 100 scale (0 no effect, 100 complete control), approximately 10 days; for Plant response rating, Barnyardgrass: 0 to 100 scale (0 no effect, 100 complete control)
Outline: as §1

[6] = system: Ryegrass, Italian (Italian ryegrass, Lolium multiflorum); experiment: Test A postemergence, Ryegrass, Italian; settings: Postemergence; for Ryegrass, Italian plant response rating: 500 g ai/ha, visual injury vs untreated controls after approx. 10 days
Outline: as §1

[7] = system: ragweed (common ragweed, Ambrosia artemisiifolia); experiment: Test A postemergence, ragweed; settings: Postemergence; for Ragweed plant response rating: 500 g ai/ha, visual injury vs untreated controls after approx. 10 days
Outline: as §1

[8] = system: Foxtail, Giant (giant foxtail, Setaria faberi); experiment: Test A preemergence, Foxtail, Giant; settings: Preemergence; for Foxtail, Giant plant response rating: visual injury on 0 to 100 scale (0 no effect, 100 complete control), approximately 10 days; for Plant response rating, Foxtail, Giant: 0 to 100 scale (0 no effect, 100 complete control)
Outline: as §1

[9] = system: pigweed (Amaranthus retroflexus); experiment: Test A postemergence, pigweed; settings: Postemergence; for Pigweed plant response rating: 500 g ai/ha, visual injury vs untreated controls after approx. 10 days
Outline: as §1

[10] = system: galium (catchweed bedstraw, Galium aparine); experiment: Test A postemergence, galium; settings: Postemergence; for Galium plant response rating: 500 g ai/ha, visual injury vs untreated controls after approx. 10 days
Outline: as §2

corn (Zea mays) = experiment: Test A postemergence, corn; settings: Postemergence; for Corn plant response rating: 500 g ai/ha, visual injury vs untreated controls after approx. 10 days
Outline: as §1

[11] = system: Ryegrass, Italian (Italian ryegrass, Lolium multiflorum); experiment: Test A preemergence, Ryegrass, Italian; settings: Preemergence; for Ryegrass, Italian plant response rating: visual injury on 0 to 100 scale (0 no effect, 100 complete control), approximately 10 days; for Plant response rating, Ryegrass, Italian: 0 to 100 scale (0 no effect, 100 complete control)
Outline: as §1

[12] = system: wheat (Triticum aestivum); experiment: Test A postemergence, wheat; settings: Postemergence; for Wheat plant response rating: 500 g ai/ha, visual injury vs untreated controls after approx. 10 days
Outline: as §2

[13] = system: blackgrass (Alopecurus myosuroides); experiment: Test A postemergence, blackgrass; settings: Postemergence; for Blackgrass plant response rating: 500 g ai/ha, visual injury vs untreated controls after approx. 10 days
Outline: as §1

kochia (Bassia scoparia) [14] = experiment: Test A preemergence, kochia; settings: Preemergence; for Kochia plant response rating: visual injury on 0 to 100 scale (0 no effect, 100 complete control), approximately 10 days; for Plant response rating, Kochia: 0 to 100 scale (0 no effect, 100 complete control)
Outline: as §1

[15] = system: barnyardgrass (Echinochloa crus-galli); experiment: Test A postemergence, barnyardgrass; settings: Postemergence; for Barnyardgrass plant response rating: 500 g ai/ha, visual injury vs untreated controls after approx. 10 days
Outline: as §2

[16] = 125 g ai/ha, visual injury approx. 10 days, 0 to 100 scale (0 no effect, 100 complete control)
[17] = 0 to 100 scale (0 no effect, 100 complete control)
[18] = 125 g ai/ha, 0 to 100 scale (0 no effect, 100 complete control)
[19] = 31 g ai/ha, visual injury, approx. 10 days
[20] = 31 g ai/ha, visual injury on 0 to 100 scale (0 no effect, 100 complete control), approx. 10 days
[21] = 125 g ai/ha, visual injury, approx. 10 days

Cc1cc(C)c(N(S(=O)(=O)C(F)(F)F)S(=O)(=O)C(F)(F)F)cc1C1=NOC2(CCC3(CC2)OCCO3)C1 [Compound 136]
Ragweed plant response rating ([1]; 125 g ai/ha): 50
Plant response rating, Ragweed ([1]; 500 g ai/ha): 80
Pigweed plant response rating ([2]; 125 g ai/ha): 20
Plant response rating, Pigweed ([2]; 500 g ai/ha): 70
Plant response rating, Foxtail, Giant [3, 16]: 0
Foxtail, Giant plant response rating [3, 17]: 50
Plant response rating, Kochia (kochia (Bassia scoparia) [4]; [16]): 30
Kochia plant response rating (kochia (Bassia scoparia) [4]; [17]): 40
Barnyardgrass plant response rating ([5]; 125 g ai/ha): 90
Plant response rating, Barnyardgrass ([5]; 500 g ai/ha): 100
Plant response rating, Ryegrass, Italian [6, 18]: 80
Ryegrass, Italian plant response rating [6, 17]: 0
Plant response rating, Ragweed [7, 18]: 60
Ragweed plant response rating [7, 17]: 50
Foxtail, Giant plant response rating ([8]; 125 g ai/ha): 100
Plant response rating, Foxtail, Giant ([8]; 500 g ai/ha): 100
Plant response rating, Pigweed [9, 18]: 40
Pigweed plant response rating [9, 17]: 90
Plant response rating, Galium [10, 16]: 70
Galium plant response rating [10, 17]: 90
Plant response rating, Corn (corn (Zea mays); [16]): 0
Corn plant response rating (corn (Zea mays); [17]): 30
Ryegrass, Italian plant response rating ([11]; 125 g ai/ha): 90
Plant response rating, Ryegrass, Italian ([11]; 500 g ai/ha): 100
Plant response rating, Wheat [12, 18]: 70
Wheat plant response rating [12, 17]: 60
Plant response rating, Blackgrass [13, 16]: 10
Blackgrass plant response rating [13, 17]: 20
Kochia plant response rating (kochia (Bassia scoparia) [14]; 125 g ai/ha): 80
Plant response rating, Kochia (kochia (Bassia scoparia) [14]; 500 g ai/ha): 90
Plant response rating, Barnyardgrass [15, 16]: 20
Barnyardgrass plant response rating [15, 17]: 80

COC1CCCN(C(=O)c2cc(NS(=O)(=O)C(F)(F)F)c(C)cc2C)C1 (centres unmarked) [Compound 175]
Ragweed plant response rating ([1]; 125 g ai/ha): 80
Plant response rating, Ragweed ([1]; 500 g ai/ha): 100
Pigweed plant response rating ([2]; 125 g ai/ha): 90
Plant response rating, Pigweed ([2]; 500 g ai/ha): 100
Plant response rating, Foxtail, Giant [3, 18]: 0
Foxtail, Giant plant response rating [3, 17]: 30
Plant response rating, Kochia (kochia (Bassia scoparia) [4]; [18]): 10
Kochia plant response rating (kochia (Bassia scoparia) [4]; [17]): 50
Barnyardgrass plant response rating ([5]; 125 g ai/ha): 90
Plant response rating, Barnyardgrass ([5]; 500 g ai/ha): 100
Plant response rating, Ryegrass, Italian [6, 18]: 30
Ryegrass, Italian plant response rating [6, 17]: 80
Plant response rating, Ragweed [7, 18]: 50
Ragweed plant response rating [7, 17]: 90
Foxtail, Giant plant response rating ([8]; 125 g ai/ha): 100
Plant response rating, Foxtail, Giant ([8]; 500 g ai/ha): 100
Plant response rating, Pigweed [9, 18]: 50
Pigweed plant response rating [9, 17]: 90
Plant response rating, Galium [10, 18]: 80
Galium plant response rating [10, 17]: 90
Plant response rating, Corn (corn (Zea mays); [18]): 0
Corn plant response rating (corn (Zea mays); [17]): 10
Ryegrass, Italian plant response rating ([11]; 125 g ai/ha): 90
Plant response rating, Ryegrass, Italian ([11]; 500 g ai/ha): 100
Plant response rating, Wheat [12, 18]: 10
Wheat plant response rating [12, 17]: 80
Plant response rating, Blackgrass [13, 18]: 0
Blackgrass plant response rating [13, 17]: 20
Kochia plant response rating (kochia (Bassia scoparia) [14]; 125 g ai/ha): 90
Plant response rating, Kochia (kochia (Bassia scoparia) [14]; 500 g ai/ha): 100
Plant response rating, Barnyardgrass [15, 18]: 20
Barnyardgrass plant response rating [15, 17]: 90

Cc1cc(C)c(N(S(=O)(=O)C(F)(F)F)S(=O)(=O)C(F)(F)F)cc1N1CC2(CCOCC2)OC1=O [Compound 157]
Plant response rating, Ragweed [1, 19]: 40
Ragweed plant response rating ([1]; 125 g ai/ha): 90
Plant response rating, Pigweed [2, 19]: 100
Pigweed plant response rating ([2]; 125 g ai/ha): 100
Plant response rating, Foxtail, Giant [3, 20]: 10
Plant response rating, Foxtail, Giant [3, 18]: 30
Plant response rating, Kochia (kochia (Bassia scoparia) [4]; [20]): 10
Plant response rating, Kochia (kochia (Bassia scoparia) [4]; [18]): 70
Plant response rating, Barnyardgrass [5, 19]: 30
Barnyardgrass plant response rating ([5]; 125 g ai/ha): 100
Plant response rating, Ryegrass, Italian [6, 20]: 0
Plant response rating, Ryegrass, Italian [6, 18]: 30
Plant response rating, Ragweed [7, 20]: 70
Plant response rating, Ragweed [7, 18]: 90
Plant response rating, Foxtail, Giant [8, 19]: 80
Foxtail, Giant plant response rating ([8]; 125 g ai/ha): 100
Plant response rating, Pigweed [9, 20]: 90
Plant response rating, Pigweed [9, 18]: 100
Plant response rating, Galium [10, 20]: 90
Plant response rating, Galium [10, 18]: 100
Plant response rating, Corn (corn (Zea mays); [20]): 20
Plant response rating, Corn (corn (Zea mays); [18]): 20
Plant response rating, Ryegrass, Italian [11, 19]: 40
Ryegrass, Italian plant response rating ([11]; 125 g ai/ha): 60
Plant response rating, Wheat [12, 20]: 0
Plant response rating, Wheat [12, 18]: 0
Plant response rating, Blackgrass [13, 20]: 30
Plant response rating, Blackgrass [13, 18]: 30
Plant response rating, Kochia (kochia (Bassia scoparia) [14]; [19]): 50
Kochia plant response rating (kochia (Bassia scoparia) [14]; 125 g ai/ha): 90
Plant response rating, Barnyardgrass [15, 20]: 20
Plant response rating, Barnyardgrass [15, 18]: 60

CC(=O)OCN(c1cc(C2=NOC3(CCCC3)C2)c(C)cc1C)S(=O)(=O)C(F)(F)F [Compound 218]
Plant response rating, Ragweed [1, 21]: 20
Plant response rating, Ragweed ([1]; 500 g ai/ha): 90
Plant response rating, Pigweed [2, 21]: 80
Plant response rating, Pigweed ([2]; 500 g ai/ha): 90
Plant response rating, Foxtail, Giant [3, 18]: 50
Foxtail, Giant plant response rating [3, 17]: 90
Plant response rating, Kochia (kochia (Bassia scoparia) [4]; [18]): 60
Kochia plant response rating (kochia (Bassia scoparia) [4]; [17]): 80
Plant response rating, Barnyardgrass [5, 21]: 100
Plant response rating, Barnyardgrass ([5]; 500 g ai/ha): 100
Plant response rating, Ryegrass, Italian [6, 18]: 30
Ryegrass, Italian plant response rating [6, 17]: 80
Plant response rating, Ragweed [7, 18]: 40
Ragweed plant response rating [7, 17]: 80
Plant response rating, Foxtail, Giant [8, 21]: 100
Plant response rating, Foxtail, Giant ([8]; 500 g ai/ha): 100
Plant response rating, Pigweed [9, 18]: 50
Pigweed plant response rating [9, 17]: 80
Plant response rating, Galium [10, 18]: 60
Galium plant response rating [10, 17]: 80
Plant response rating, Corn (corn (Zea mays); [18]): 10
Corn plant response rating (corn (Zea mays); [17]): 70
Plant response rating, Ryegrass, Italian [11, 21]: 100
Plant response rating, Ryegrass, Italian ([11]; 500 g ai/ha): 100
Plant response rating, Wheat [12, 18]: 10
Wheat plant response rating [12, 17]: 70
Plant response rating, Blackgrass [13, 18]: 10
Blackgrass plant response rating [13, 17]: 40
Plant response rating, Kochia (kochia (Bassia scoparia) [14]; [21]): 30
Plant response rating, Kochia (kochia (Bassia scoparia) [14]; 500 g ai/ha): 60
Plant response rating, Barnyardgrass [15, 18]: 80
Barnyardgrass plant response rating [15, 17]: 90
